Measured values from the SangsterLogP compilation.
Peptide text beside a SMILES is read from it. * marks the point of attachment. NHtBu = CC(C)(C)N*

What was measured:
[1] = not given; remark: listed apart in the source
[2] = not given; remark: listed apart in the source
[3] = method code SF-HPLC, from DOI: 10.1016/0378-5173(88)90064-6; conditions: pH 7.4
[4] = not given; remark: listed apart in the source
[5] = method code SF-HPLC, from Yu, G.; Xu, X. (1993). Determination of the 1-octanol/water partition coefficient of nitro-PAHs. Huanjing Huaxue, 12(4)299-303.
[6] = method code SF, from DOI: 10.1016/0378-5173(90)90261-2; conditions: pH 3.0
[7] = not given; remark: listed apart in the source
[8] = not given; remark: listed apart in the source
[9] = method code SF-AS, from DOI: 10.1016/0223-5234(94)90063-9; conditions: pH 2.0
[10] = method code SF-HPLC, from DOI: 10.1023/a:1018903407592, PMID: 8165182; conditions: pH 7.4
[11] = method code SF-AS, from DOI: 10.1021/jm00395a009, PMID: 3681892; conditions: pH 7.4
[12] = not given; remark: listed apart in the source
[13] = method code SF-RC, from DOI: 10.1023/a:1015892313856, PMID: 1495896
[14] = method code SF, from DOI: 10.1248/cpb.39.1346, PMID: 1914012
[15] = not given; remark: listed apart in the source
[16] = not given; remark: listed apart in the source
[17] = method code SF-AS, from DOI: 10.1016/s0969-8051(99)00063-3, PMID: 10628565; conditions: pH 7.0
[18] = method code SF-AS, from DOI: 10.1016/0378-5173(86)90115-8
[19] = not given; remark: listed apart in the source
[20] = method code SF-AS, from Falk, M.; Luecke, L. (1989). Transport of substances through lipid membranes. 11. Effect of esterification on the dissociation and permeation of orotic acid. Pharmazie, 44(9)647.; conditions: pH 1.2
[21] = not given; remark: listed apart in the source
[22] = not given; remark: listed apart in the source
[23] = not given; remark: listed apart in the source
[24] = method code SF-HPLC, from DOI: 10.1002/jps.10072, PMID: 11920751; conditions: pH 7.4
[25] = method code SF, from DOI: 10.1021/jm200015a, PMID: 21630666; conditions: pH 7.4
[26] = method code SF-AS, from DOI: 10.1021/jf60220a002

COc1cccc(Nc2ccccc2C(=O)O)c1
logP: 4.31

Brc1c(Br)c(Br)c(Oc2c(Br)c(Br)c(Br)c(Br)c2Br)c(Br)c1Br
logP [1]: 9.56

CSCCC(NC(C)=O)C(=O)Nc1nnc(-c2cccc(Cl)c2Cl)c(N)n1 (centres undefined)
logP [2]: 1.92

CC(=O)c1ccc2cc(C(C)C(=O)OCC(=O)N(C)CCO)ccc2c1 (centres undefined)
logD [3]: 2.01

CC1=C(C)C(O)N(c2cccc(N)c2)C1=O (centres undefined)
logP [4]: 0.51

O=[N+]([O-])c1c2ccccc2cc2ccccc12
logP [5]: 4.21

O=C(O)CCCCCCCc1ccccc1
logD [6]: 4.09

CC(C)C(C(=O)O)c1ccc(OC(F)F)cc1 (centres undefined)
logP [7]: 3.03

CC(=O)NC(CCC(=O)O)C(=O)Nc1nnc(-c2cccc(Cl)c2Cl)c(N)n1 (centres undefined)
logP [2]: 1.6

CC(C)NC(C)Cc1ccc(I)cc1 (centres undefined)
logP [8]: 1.6

Cn1c(CC(=O)O)cnc1C(=O)c1ccc(Cl)cc1
logD [9]: 1.17

CC(=O)c1ccc2cc(C(C)C(=O)OCC(=O)N(C)C)ccc2c1 (centres undefined)
logD [3]: 2.05

CCCCC(=O)OCCOCn1cnc2c(=O)[nH]c(N)nc21
logD [10]: 0.37

CC(=O)OCC1OC(n2ccc(=O)n(Cc3ccccc3)c2=O)C(OC(C)=O)C1OC(C)=O (centres undefined)
logD [11]: 1.51

Cc1cn(C2CC(N=[N+]=[N-])C(COC(=O)c3ccncc3)O2)c(=O)[nH]c1=O (centres undefined)
logP [12]: 0.8

CC(=O)NC(C)C(=O)NC(CCC(N)=O)C(=O)NC(C)C(=O)NC(C)(C)C (stereo not drawn) (Ac-Ala-Gln-Ala-NHtBu; configuration not given here)
logD ([13]; pH 2.0): -0.67

CC(=O)NC(C)C(=O)NC(CC(=O)O)C(=O)NC(C)(C)C (stereo not drawn) (Ac-Ala-Asp-NHtBu; configuration not given here)
logD ([13]; pH 2.0): -0.74

O=C(O)c1ccccc1Nc1cccc(O)c1
logP: 3.43

CC1(C(=O)O)CCC2(C)CCC3(C)C(=CC(=O)C4C5(C)CCC(O)C(C)(C)C5CCC43C)C2C1 (centres undefined)
logP [14]: 4.77

COc1ccc(C(c2ccc(OC)cc2)C(Cl)Cl)cc1
logP [15]: 3.78

CC(=O)c1cccc(Nc2ccccc2C(=O)O)c1
logP: 4.07

O=[N+]([O-])c1ccc2ccc3cccc4ccc1c2c34
logP [5]: 5.06

Fc1ccc(-c2ccc(-c3ccc(F)cc3)o2)cc1
logP [15]: 5.11

Clc1cc2oc3cc(Cl)c(Cl)c(Cl)c3c2c(Cl)c1Cl
logP [16]: 7.57

CC(=O)OC[C@H]1O[C@@H](n2cc(C)c(=O)[nH]c2=O)C[C@@H]1N=[N+]=[N-]
logP [12]: 0.45

COCCn1cnc2c(=O)[nH]c(Nc3ccccc3)nc21
logD [17]: 1.2

CCCCC(=O)N(C)c1ccc(S(=O)(=O)N(C)C)cc1
logP [18]: 1.63

COC(=O)C(C)Oc1ccc(Oc2ncc(C(F)(F)F)cc2Cl)cc1 (centres undefined)
logP [19]: 4.07

CCCCCCCCOC(=O)c1cc(=O)[nH]c(=O)[nH]1
logD [20]: 2.6

Clc1cc2oc3c(Cl)c(Cl)c(Cl)c(Cl)c3c2cc1Cl
logP [21]: 6.6

CC(=O)OCC1OC(n2ccc(N)nc2=O)C(O)C1O (centres undefined)
logP [12]: -1.25

S=c1ssc2c1CCCCCCCCCCCCC2
logP [22]: 7.18

CCCCCC(=O)OCCOCn1cnc2c(=O)[nH]c(N)nc21
logD [10]: 0.93

Clc1cc(Cl)c2oc3c(Cl)cc(Cl)c(Cl)c3c2c1Cl
logP [16]: 7.65

CN(C(=O)CCC#N)c1ccc(S(=O)(=O)N(C)C)cc1
logP [18]: -0.17

CN(C(=O)CCO)c1ccc(S(=O)(=O)N(C)C)cc1
logP [18]: -0.26

CCCCCCCCCOC(=O)c1cc(=O)[nH]c(=O)[nH]1
logD [20]: 2.41

COC1OC(n2ccc(=O)[nH]c2=O)C(OC)C1OC (centres undefined)
logD [11]: -0.3

O=[N+]([O-])c1cccc(-c2ccccc2)c1
logP [5]: 3.69

Clc1cc(Cl)c2oc3c(Cl)c(Cl)c(Cl)c(Cl)c3c2c1
logP [16]: 7.58

CC1=C(C)C(O)N(c2ccc(C(F)(F)F)cc2)C1=O (centres undefined)
logP [4]: 3.13

CC(=O)NCC(=O)Nc1nnc(-c2cccc(Cl)c2Cl)c(N)n1
logP [2]: 1.1

Cn1c(CC(=O)O)cnc1C(=O)c1ccc([N+](=O)[O-])cc1
logD [9]: 0.86

Clc1cc2c(c(Cl)c1Cl)Oc1cc(Cl)c(Cl)c(Cl)c1O2
logP [21]: 7.8

Cc1ccccc1NS(=O)(=O)c1c(O)c(Cl)cc(Cl)c1Cl
logP [23]: 4.02

O=S(=O)(Nc1ccc(Cl)cc1)c1cc(Cl)cc(Cl)c1O
logP [23]: 3.66

CC(=O)OCC(CO)OCn1cnc2c(=O)[nH]c(N)nc21 (centres undefined)
logD [24]: -1.08

Brc1ccc(-c2cc(Br)ccc2Br)c(Br)c1
logP [1]: 6.49

Brc1cc(Br)c(-c2cc(Br)ccc2Br)c(Br)c1
logP [1]: 6.89

CC1(C)[C@@H](O[C@H]2O[C@H](C(=O)O)[C@@H](O)[C@H](O)[C@H]2O[C@@H]2O[C@H](C(=O)O)[C@@H](O)[C@H](O)[C@H]2O)CC[C@@]2(C)[C@@H]3C(=O)C=C4[C@H]5C[C@@](C)(C(=O)O)CC[C@@]5(C)CC[C@@]4(C)C3(C)CC[C@@H]12 (some centres undefined)
logP [14]: 2.8

O=c1c2c([nH]c3cc(-c4ccc(-c5ccc(OC(F)(F)F)cc5)cc4)ccc13)CCCC2
logD [25]: 3.8

CC(=O)N[C@@H](C)C(=O)NCC(=O)NC(C)(C)C
logD ([13]; pH 7.2): -0.6

CCCN(CCCl)c1c([N+](=O)[O-])cc(C(F)(F)F)cc1[N+](=O)[O-]
logP [19]: 4.63

O=[N+]([O-])c1cccc(O[C@@H]2O[C@H](CO)[C@@H](O)[C@H](O)[C@H]2O)c1
logP [14]: -0.46

O=C(CCCN1CCC(O)(c2ccc(I)cc2)CC1)c1ccc(F)cc1
logP [8]: 2.6

CC1=C(C)C(O)N(c2ccc(C(F)(F)F)c(Cl)c2)C1=O (centres undefined)
logP [4]: 3.53

CCNP(=O)(OCC)ON=C(C#N)c1ccc([N+](=O)[O-])cc1 (centres undefined)
logP [26]: 1.76

Cc1cc(-c2ccc(OC(F)(F)F)cc2)ccc1-c1ccc2[nH]c3c(c(=O)c2c1)CSCC3
logD [25]: 3.6

Clc1cc2c(oc3cc(Cl)c(Cl)c(Cl)c32)c(Cl)c1Cl
logP [21]: 6.6

O=S(=O)(Nc1ccccc1)c1c(O)c(Cl)cc(Cl)c1Cl
logP [23]: 3.74

Cc1cc(I)cc(CN(C)CCCN(C)C)c1O
logP [8]: 2.2

COc1ccc(C(=O)c2ncc(CC(=O)O)n2C)cc1
logD [9]: 0.11

CCCCCCCOC(=O)c1cc(=O)[nH]c(=O)[nH]1
logD [20]: 2.15

O=c1c2c([nH]c3ccc(Br)cc13)CCSC2
logD [25]: 0.9

O=c1[nH]c(Nc2ccccc2)nc2c1ncn2CCO
logD [17]: 0.83

O=C(O)CCCCCCc1ccccc1
logD [6]: 3.63

CCCCC(=O)OCC(CO)OCn1cnc2c(=O)[nH]c(N)nc21 (centres undefined)
logD [24]: -0.07

CN(CCO)C(=O)COC(=O)c1ccccc1O
logD [3]: 0.86

CC(C)C(C(=O)O)c1ccc(Cl)cc1 (centres undefined)
logP [7]: 3.38

CC12CCC(c3c1ssc3=S)C2(C)C (centres undefined)
logP [22]: 3.7

S=c1ssc(-c2ccccc2)c1-c1ccccc1
logP [22]: 4.2

O=C1CCCCCCCCCCC1
logP [15]: 4.1

CCCC(=O)OCCOCn1cnc2c(=O)[nH]c(N)nc21
logD [10]: -0.08

CCNP(=O)(OCC)O/N=C(/C#N)c1ccc(OC)cc1 (centres undefined)
logP [26]: 2.39

CCC(=O)OCC(CO)OCn1cnc2c(=O)[nH]c(N)nc21 (centres undefined)
logD [24]: -0.92

O=C(O)CCCCCc1ccccc1
logD [6]: 3.27

O=C(O)c1cc(Oc2ccc(C(F)(F)F)cc2Cl)ccc1[N+](=O)[O-]
logP [19]: 4.26

O=c1ccn(C2OC(CO)C(O)C2O)c(=O)n1Cc1ccccc1 (centres undefined)
logD [11]: 0.33

COc1ccc(C(C(=O)O)C(C)C)cc1 (centres undefined)
logP [7]: 2.5
